In patent publication US9687497B1, “Salts and polymorphs of cyclic boronic acid ester derivatives and therapeutic uses thereof” (Rempex Pharmaceuticals, Inc., priority 2014, dated 2017):
Read-outs that look alike come from different tables or passages of the source.

Assays:
[1] = Salt-screening study (crystalline form screening of Compound 1 with counterions); type: physicochemical; conditions: for formation of pure and stable crystalline salt form, overall salt screen: approximately 360 screening experiments, FT-Raman and PXRD
Description: During the salt-screening step, 60 combinations of […] counterions with nine solvent systems were tested.
The screening studies were conducted in two stages.
In Stage 1, the samples involving counterion Nos. 1-6 listed in Table 1 were paired with solvent Nos. 1-6 listed in Table 2, whereas samples involving counterion Nos. 7 and 8 were paired with solvent Nos. 1-5 and 8.
In Stage 2, a few samples that remained undissolved and amorphous in the first stage were 1) subjected to rapid solvent evaporation under vacuum; 2) dissolved in solvent Nos. 7-9 listed in Table 2; 3) cooled to 5° C. and held at 5° C. for 72 hrs; and 4) allowed to evaporate at ambient conditions over 3-7 days.
(§1) All samples were inspected visually and by Polarized light microscopy at every step listed above to check any formation of crystalline products. Any crystalline products obtained from these procedures were isolated by vacuum filtration and, where possible, analyzed by FT-Raman. Unique crystalline products were subjected to further analyses by PXRD, DSC, TGA-IR, and HPLC, as necessary.

[2] = HPLC analysis of salt-screening products for decomposition; type: physicochemical; conditions: solvent system THF and Water (95:5 vol %)
Description: as §1

[3] = counterion itself; cited from earlier work
pKa of Compound 1 = type: physicochemical
[4] = Chemical stability of Compound 1 in solution; type: physicochemical; conditions: solutions having pH values between 2 and 8
[5] = Solubility of Compound 1 in salt-screening solvents; type: physicochemical; conditions: for solubility: organic solvent or mixture, read-out: solubility of Compound 1 (S)
Description: Nine solvent systems were evaluated in the Salt-screening study. The solvents were selected based on the solubility data accumulated during preceding studies. In addition, solvents represented a diverse set of polarities, dielectric constants, dipole moments, and hydrogen-bond donor/acceptor attributes to promote crystallization of salts.

[6] = Open-air handling and stability of isolated potassium salt; type: physicochemical
Description: The potassium salt was subsequently reproduced at 50 mg and 300 mg scales using seeding, which facilitated crystallization of the several hours of amorphous intermediate phase. […] Once a free-flowing powder was isolated, the powder was stable in open-air for at least 7 days.

[Ca+2].[OH-].[OH-] [Calcium hydroxide]
formation of pure and stable crystalline salt form, overall salt screen [1]: no pure and stable crystalline salt was formed
decomposition in screening products by HPLC [2]: significant decomposition

C[N+](C)(C)CCO.[OH-] [Choline hydroxide]
decomposition in screening products by HPLC [2]: significant decomposition
pKa3 [3]: >11

O=C(O)C[C@@H]1CC[C@H](NC(=O)Cc2cccs2)B(O)O1 [Compound 1, 2-((3R,6S)-2-hydroxy-3-(2-(thiophen-2-yl)acetamido)-1,2 oxaborinan-6-yl)acetic acid]
pKa (pKa of Compound 1): 3.92
chemical stability of boronic acid moiety in solution [4]: chemically stable
solubility ([5]; 1,4-dioxane): 1000 to 10000 µg/mL
solubility ([5]; MTBE): < 1000 µg/mL
solubility ([5]; THEF Water (95:5% vol.)): > 1000 µg/mL
solubility of Compound 1 ([5]; Water): Low solubility of Compound 1
solubility ([5]; acetone): < 1000 µg/mL
solubility ([5]; acetonitrile (ACN)): < 1000 µg/mL
solubility ([5]; ethyl acetate): < 1000 µg/mL
solubility ([5]; ACN: Water (90:10% vol.)): < 20000 µg/mL

O=C([O-])C[C@@H]1CC[C@H](NC(=O)Cc2cccs2)B(O)O1.[K+] [Compound 1A, potassium salt of 2-((3R,6S)-2-hydroxy-3-(2-(thiophen-2-yl)acetamido)-1,2-oxaborinan-6-yl)acetic acid]
formation of pure and stable crystalline salt form, overall salt screen [1]: yielded a pure and stable crystalline form
formation of pure and stable crystalline salt form, overall salt screen ([1]; listed as potassium salt of compound 1): yielded crystalline products
propensity for polymorphism ([1]; only one crystalline form observed in the study): low propensity for polymorphism
deliquescence on isolation ([6]; isolated in open air, reduced or eliminated under nitrogen blanket): may undergo deliquescence
stability of isolated free-flowing powder in open-air ([6]; open air): at least 7 days

[Mg+2].[OH-].[OH-] [Magnesium hydroxide]
formation of pure and stable crystalline salt form, overall salt screen [1]: no pure and stable crystalline salt was formed
decomposition in screening products by HPLC [2]: significant decomposition

CC(C)(C)[O-].[K+] [Potassium t-butoxide]
pKa3 [3]: ~14

[K+] [potassium]
decomposition in screening products by HPLC [2]: significant decomposition
